Data from patent publication US20250152585A1, “PHARMACEUTICAL COMPOUND” (Duke Street Bio Limited, priority 2022, published 2025).
Read-outs that look alike come from different tables or passages of the source.

Columns and labels:
[1] = target: T1, full length N-terminally FLAG-tagged PARP1 (Homo sapiens, UniProt P09874); assay: PARP1 probe displacement HTRF assay; conditions: for Kd: binned Kd; for Selectivity: PARP1 over PARP2, ratio Kd (PARP2)/Kd (PARP1)
[2] = target: T2, N-terminally FLAG-tagged PARP2 (amino acids 1-583) (Homo sapiens, UniProt Q9UGN5); assay: PARP2 probe displacement HTRF assay; type: binding; conditions: binned Kd
T2 construct: N-terminally FLAG-tagged PARP2 (amino acids 1-583)
T2 sequence (Q9UGN5 whole entry, the tested form may be a part): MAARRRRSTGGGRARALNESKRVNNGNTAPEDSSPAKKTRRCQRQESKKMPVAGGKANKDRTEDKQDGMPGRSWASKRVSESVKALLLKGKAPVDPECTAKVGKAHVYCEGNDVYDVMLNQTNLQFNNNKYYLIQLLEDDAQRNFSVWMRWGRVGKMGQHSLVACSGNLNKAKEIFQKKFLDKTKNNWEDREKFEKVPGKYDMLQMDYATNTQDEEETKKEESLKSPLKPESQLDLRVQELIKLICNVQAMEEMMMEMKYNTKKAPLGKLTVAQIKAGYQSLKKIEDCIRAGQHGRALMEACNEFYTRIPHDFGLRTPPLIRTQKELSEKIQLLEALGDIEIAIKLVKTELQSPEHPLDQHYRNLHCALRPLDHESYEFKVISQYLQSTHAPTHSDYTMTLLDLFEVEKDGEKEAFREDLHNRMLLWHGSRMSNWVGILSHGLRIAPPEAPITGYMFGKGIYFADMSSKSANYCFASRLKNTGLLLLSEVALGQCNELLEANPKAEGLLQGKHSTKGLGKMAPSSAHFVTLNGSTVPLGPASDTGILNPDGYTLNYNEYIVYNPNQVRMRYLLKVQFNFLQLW
Experimental: Data analysis was performed identical as for PARP1.

[3] = target: T1, full length N-terminally FLAG-tagged PARP1; assay: PARP1 biochemical DELFIA assay (auto-PARylation); parameters: recombinant full length human N-terminally FLAG-tagged PARP1
[4] = PARP1 HTRF, probe displacement HTRF
[5] = binned IC50, biochemical auto-PARylation assay
[6] = read-out: PARP1 HTRF, PARP1 probe displacement HTRF
[7] = binned IC50, PARP1 biochemical DELFIA assay
[8] = read-out: PARP1 HTRF, probe displacement HTRF
[9] = PARP1 HTRF, PARP1 probe displacement HTRF

T1 sequence (P09874 whole entry, the tested form may be a part): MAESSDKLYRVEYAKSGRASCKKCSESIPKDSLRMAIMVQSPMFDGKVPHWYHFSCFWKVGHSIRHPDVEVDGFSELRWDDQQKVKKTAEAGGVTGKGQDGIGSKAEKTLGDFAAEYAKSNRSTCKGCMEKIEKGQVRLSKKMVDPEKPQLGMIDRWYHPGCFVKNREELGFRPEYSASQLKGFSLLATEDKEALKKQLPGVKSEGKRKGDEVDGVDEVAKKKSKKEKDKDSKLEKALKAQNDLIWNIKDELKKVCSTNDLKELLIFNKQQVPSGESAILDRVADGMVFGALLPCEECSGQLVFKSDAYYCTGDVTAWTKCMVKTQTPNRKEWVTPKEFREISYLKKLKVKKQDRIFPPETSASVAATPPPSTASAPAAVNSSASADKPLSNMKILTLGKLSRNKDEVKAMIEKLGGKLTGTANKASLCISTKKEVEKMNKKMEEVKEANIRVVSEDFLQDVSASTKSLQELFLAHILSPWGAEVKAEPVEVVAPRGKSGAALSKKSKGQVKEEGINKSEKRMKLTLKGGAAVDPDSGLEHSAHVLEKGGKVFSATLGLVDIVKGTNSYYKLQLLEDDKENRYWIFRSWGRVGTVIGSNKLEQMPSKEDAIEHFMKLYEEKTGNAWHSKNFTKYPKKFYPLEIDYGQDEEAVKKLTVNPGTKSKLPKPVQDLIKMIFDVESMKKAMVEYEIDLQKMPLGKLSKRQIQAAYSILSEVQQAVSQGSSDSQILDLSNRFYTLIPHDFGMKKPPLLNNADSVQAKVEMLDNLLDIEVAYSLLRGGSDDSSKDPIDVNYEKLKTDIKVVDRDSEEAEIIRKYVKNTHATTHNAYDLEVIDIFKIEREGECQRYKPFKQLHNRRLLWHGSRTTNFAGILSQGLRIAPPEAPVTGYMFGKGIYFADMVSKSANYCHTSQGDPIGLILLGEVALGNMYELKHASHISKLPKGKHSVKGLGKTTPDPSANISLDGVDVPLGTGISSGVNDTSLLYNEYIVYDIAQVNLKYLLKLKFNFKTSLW

Kd [1, 4]	Kd ([2]; probe displacement HTRF)	IC50 [3, 5]	Kd [1, 6]	Kd ([2]; PARP2 probe displacement HTRF)	IC50 [3, 7]	Kd [1, 8]	Kd [1, 9]	Structure (SMILES)	Selectivity ([1]; probe displacement HTRF)
–	–	–	< 10 nM	1000 to 10000 nM	< 10 nM	–	–	CNC(=O)c1ccc(N2CCC(N3CCC(c4nc5ccccc5c(=O)[nH]4)C3)CC2)c(C)n1 (single isomer, unassigned) [Compound 125b]	+++ (+++ indicate a value of at least 100)
–	–	–	< 10 nM	10 to 100 nM	< 10 nM	–	–	CNC(=O)c1ccc(N2CCC(N3CCC(c4cc5cccc(Cl)c5c(=O)[nH]4)C3)CC2)cn1 (single isomer, unassigned) [Compound 128b]	++ (++ indicates a value of 50 to less than 100)
–	> 10000 nM	1000 to 10000 nM	–	–	–	1000 to 10000 nM	–	CNC(=O)c1ccc(N2CCC(N3CCC(c4cnc(CC(F)(F)F)c(=O)[nH]4)C3)CC2)cn1 (single isomer, unassigned) [Compound 287b]	− (− indicates a value of less than 10)
–	> 10000 nM	10 to 100 nM	–	–	–	10 to 100 nM	–	CNC(=O)c1ccc(N2CCC(N3CCC(c4nc5c(c(=O)[nH]4)NCCN5)C3)CC2)cn1 (racemic) [Compound 226rac]	++ (++ indicates a value of 50 to less than 100)
–	–	–	< 10 nM	100 to 1000 nM	< 10 nM	–	–	CNC(=O)c1ccc(N2CCC(N3CCCC(c4cc5ccccc5c(=O)[nH]4)C3)CC2)cn1 (single isomer, unassigned) [Compound 100a]	+++ (+++ indicate a value of at least 100)
< 10 nM	100 to 1000 nM	< 10 nM	–	–	–	–	–	CNC(=O)c1ncc(N2CCC(N3CC4(c5nc6ccc(F)cc6c(=O)[nH]5)CC3C4)CC2)cc1F [Compound 379]	+++ (+++ indicate a value of at least 100)
–	–	–	< 10 nM	> 10000 nM	< 10 nM	–	–	CNC(=O)c1ccc(N2CCC(N3CCCC(c4nc5c(Cl)cccc5c(=O)[nH]4)C3)CC2)cn1 (single isomer, unassigned) [Compound 44a]	+++ (+++ indicate a value of at least 100)
–	1000 to 10000 nM	10 to 100 nM	–	–	–	10 to 100 nM	–	CNC(=O)c1ccc(N2CCC(N3CCC(c4cc5[nH]nc(C(F)(F)F)c5c(=O)[nH]4)C3)CC2)c(F)n1 (single isomer, unassigned) [Compound 280a]	++ (++ indicates a value of 50 to less than 100)
< 10 nM	100 to 1000 nM	< 10 nM	–	–	–	–	–	CNC(=O)c1ccc(N2CCC(N3CC4(c5nc6ccc(F)cc6c(=O)[nH]5)CC3C4)CC2)cn1 [Compound 238]	+++ (+++ indicate a value of at least 100)
–	> 10000 nM	10 to 100 nM	–	–	–	10 to 100 nM	–	CNC(=O)c1ccc(N2CCC(N3CC4(c5nc6ccccc6c(=O)[nH]5)CCC3C4)CC2)cn1 (single isomer, unassigned) [Compound 245b]	+++ (+++ indicate a value of at least 100)
–	1000 to 10000 nM	< 10 nM	–	–	–	< 10 nM	–	CNC(=O)c1ccc(N2CCC(N3CCC(c4nc5c(c(=O)[nH]4)CCC5)C3)CC2)cn1 (single isomer, unassigned) [Compound 283b]	+++ (+++ indicate a value of at least 100)
< 10 nM	100 to 1000 nM	< 10 nM	–	–	–	–	–	CNC(=O)c1ccc(N2CCC(N3CC4(c5nc6c(c(=O)[nH]5)CCCC6)CC3C4)CC2)c(F)n1 [Compound 389]	+++ (+++ indicate a value of at least 100)
–	> 10000 nM	< 10 nM	–	–	–	< 10 nM	–	CNC(=O)c1ccc(N2CCC(N3CCC(c4cc5ncc(Cl)cc5c(=O)[nH]4)C3)CC2)c(F)n1 (single isomer, unassigned) [Compound 344a]	+++ (+++ indicate a value of at least 100)
–	–	–	< 10 nM	100 to 1000 nM	< 10 nM	–	–	O=c1[nH]c(C2CCN(C3CCN(c4ccc(Cl)cc4)CC3)C2)nc2ccccc12 (single isomer, unassigned) [Compound 43b]	+ (+ indicates a value of 10 to less than 50)
–	100 to 1000 nM	10 to 100 nM	–	–	–	10 to 100 nM	–	O=c1[nH]c(C2CCN(C3CCN(c4ccc(OC(F)F)nc4)CC3)C2)cc2ccc(F)cc12 (single isomer, unassigned) [Compound 374a]	+ (+ indicates a value of 10 to less than 50)
–	–	–	–	> 10000 nM	< 10 nM	–	< 10 nM	CNC(=O)c1ccc(N2CCC(CN3CCC(c4nc5ccccc5c(=O)[nH]4)CC3)CC2)cn1 [Compound 8, N-methyl-5-(4-((4-(4-oxo-3,4-dihydroquinazolin-2-yl)piperidin-1-yl)methyl)piperidin-1-yl)picolinamide]	+++ (+++ indicate a value of at least 100)

Kd [1, 4]	Kd ([2]; probe displacement HTRF)	IC50 [3, 5]	Kd [1, 6]	Kd ([2]; PARP2 probe displacement HTRF)	IC50 [3, 7]	Kd [1, 8]	Kd [1, 9]	Structure (SMILES)	Selectivity ([1]; probe displacement HTRF)
–	–	–	100 to 1000 nM	> 10000 nM	100 to 1000 nM	–	–	CNC(=O)c1ccc(N2CCC(N3CCCC(c4nc5sc(C)c(C)c5c(=O)[nH]4)C3)CC2)cn1 (single isomer, unassigned) [Compound 199b]	+ (+ indicates a value of 10 to less than 50)
–	> 10000 nM	100 to 1000 nM	–	–	–	100 to 1000 nM	–	CCCc1ccc(C2CCN(C3CCN(c4ccc(C(=O)NC)nc4F)CC3)C2)[nH]c1=O (single isomer, unassigned) [Compound 269b]	+ (+ indicates a value of 10 to less than 50)
–	–	–	> 10000 nM	> 10000 nM	1000 to 10000 nM	–	–	CNC(=O)c1ccc(N2CCC(N3CCCC(c4nc5cnccc5c(=O)[nH]4)C3)CC2)cn1 (single isomer, unassigned) [Compound 106b]	− (− indicates a value of less than 10)
–	–	–	< 10 nM	100 to 1000 nM	< 10 nM	–	–	CNC(=O)c1ccc(N2CCC(N3CCC(c4cc5ccccc5c(=O)[nH]4)C3)CC2)cn1 (single isomer, unassigned) [Compound 91b]	+++ (+++ indicate a value of at least 100)
–	–	–	100 to 1000 nM	> 10000 nM	100 to 1000 nM	–	–	CNC(=O)c1ccc(N2CCC(N3CCCC(c4ncc(C(F)(F)F)c(=O)[nH]4)C3)CC2)cn1 (single isomer, unassigned) [Compound 73a]	− (− indicates a value of less than 10)
–	–	–	–	> 10000 nM	100 to 1000 nM	–	100 to 1000 nM	CCc1ccc(C2CCN(CC3CCN(c4ccc(C(=O)NC)nc4)CC3)CC2)[nH]c1=O [Compound 47]	− (− indicates a value of less than 10)
–	100 to 1000 nM	< 10 nM	–	–	–	< 10 nM	–	CCc1ccc(C2CCN(C3CCN(c4ccc(C(=O)NC)cc4F)CC3)C2)[nH]c1=O (single isomer, unassigned) [Compound 366b]	++ (++ indicates a value of 50 to less than 100)
–	10 to 100 nM	< 10 nM	–	–	–	< 10 nM	–	N#Cc1ccc(N2CCC(N3CCC(c4cc5ccc(F)cc5c(=O)[nH]4)C3)CC2)c(F)c1 (single isomer, unassigned) [Compound 385b]	+++ (+++ indicate a value of at least 100)
–	–	–	–	10 to 100 nM	< 10 nM	–	< 10 nM	CNC(=O)c1ccc(N2CCC(N3CCC(c4cc5cccc(F)c5c(=O)[nH]4)C3)CC2)cn1 (racemic) [Compound 136rac, 5-{4-[3-(8-fluoro-1-oxo-2H-isoquinolin-3-yl)pyrrolidin-1-yl]piperidin-1-yl}-N-methylpyridine-2-carboxamide]	+++ (+++ indicate a value of at least 100)
–	10 to 100 nM	< 10 nM	–	–	–	< 10 nM	–	CNC(=O)c1ccc(N2CCC(N3CCC(c4nc5[nH]nc(C(F)(F)F)c5c(=O)[nH]4)C3)CC2)c(F)n1 (single isomer, unassigned) [Compound 267b]	+++ (+++ indicate a value of at least 100)
–	100 to 1000 nM	< 10 nM	–	–	–	< 10 nM	–	CCc1ccc(C2CCN(C3CCN(c4ccc(C#N)cc4)CC3)C2)[nH]c1=O (single isomer, unassigned) [Compound 317b]	+++ (+++ indicate a value of at least 100)
–	–	–	10 to 100 nM	> 10000 nM	100 to 1000 nM	–	–	CNC(=O)c1ccc(N2CCC(N3CCC(c4nc5ncccc5c(=O)[nH]4)C3)CC2)cn1 (single isomer, unassigned) [Compound 60b]	++ (++ indicates a value of 50 to less than 100)
–	10 to 100 nM	< 10 nM	–	–	–	< 10 nM	–	CNC(=O)c1ccc(N2CCC(N3CCC(c4[nH]c(=O)c5cc(F)ccc5c4F)C3)CC2)cn1 (single isomer, unassigned) [Compound 401a]	+++ (+++ indicate a value of at least 100)
–	100 to 1000 nM	< 10 nM	–	–	–	< 10 nM	–	CNC(=O)c1ncc(N2CCC(N3CCC(c4cc5ccc(F)cc5c(=O)[nH]4)C3)CC2)cc1F (single isomer, unassigned) [Compound 395a]	+ (+ indicates a value of 10 to less than 50)
–	–	–	100 to 1000 nM	> 10000 nM	100 to 1000 nM	–	–	CNC(=O)c1ccc(N2CCC(N3CCC(c4nc5onc(C(F)(F)F)c5c(=O)[nH]4)C3)CC2)cn1 (single isomer, unassigned) [Compound 176a]	+ (+ indicates a value of 10 to less than 50)

Structure (SMILES)	Kd [1, 4]	Kd ([2]; probe displacement HTRF)	IC50 [3, 5]	Kd [1, 6]	Kd ([2]; PARP2 probe displacement HTRF)	IC50 [3, 7]	Kd [1, 8]	Kd [1, 9]	Selectivity ([1]; probe displacement HTRF)
CNC(=O)c1ccc(N2CCC(N3CC4(c5nc6ccncc6c(=O)[nH]5)CC3C4)CC2)c(F)n1 [Compound 305]	< 10 nM	> 10000 nM	< 10 nM	–	–	–	–	–	+++ (+++ indicate a value of at least 100)
